Reference: patent publication US20030004172A1, “Fused pyrimidinone matrix metalloproteinase inhibitors” (priority 2001, published 2003)
Where two headings read alike, the source gives them in different places.

Columns and labels:
[1] = molecular target: MMP-13CD (catalytic domain of collagenase-3) (Homo sapiens, UniProt P45452); assay: Thiopeptolide substrate hydrolysis inhibition assay, MMP-13CD; format: biochemical
Text: (§1) Thiopeptolide substrates show virtually no decomposition or hydrolysis at or below neutral pH in the absence of a matrix metalloproteinase enzyme.

[2] = molecular target: T1, MMP-12CD (Homo sapiens, UniProt P39900); assay: Thiopeptolide substrate hydrolysis inhibition assay, MMP-12CD; format: biochemical; details: Table II; micromolar concentration; HEPES pH 7.0
T1 construct: 12CD
T1 sequence (P39900 106-263 limits assumed): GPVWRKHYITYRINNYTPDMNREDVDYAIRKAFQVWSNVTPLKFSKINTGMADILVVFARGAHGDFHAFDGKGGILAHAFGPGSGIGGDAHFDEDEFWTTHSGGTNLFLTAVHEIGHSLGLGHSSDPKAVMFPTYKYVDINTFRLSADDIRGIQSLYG
Text: as §1

[3] = molecular target: MMP-3CD (catalytic domain of stromelysin-1) (Homo sapiens, UniProt P08254); assay: Thiopeptolide substrate hydrolysis inhibition assay, MMP-3CD; format: biochemical; details: Table II; micromolar concentration; MES buffer pH 6.0
Chain of MMP-3CD (catalytic domain of stromelysin-1) (P08254 100-272 limits assumed): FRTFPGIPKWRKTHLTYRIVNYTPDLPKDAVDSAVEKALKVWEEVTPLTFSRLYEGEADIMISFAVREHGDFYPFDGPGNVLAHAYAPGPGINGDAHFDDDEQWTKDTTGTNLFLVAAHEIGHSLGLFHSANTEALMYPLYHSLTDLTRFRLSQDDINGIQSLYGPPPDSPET
Protocol: as §1
It should be appreciated that the assay buffer used with MMP-3CD is 50 mM N-morpholinoethanesulfonate (“MES”) at pH 6.0 rather than the HEPES buffer at pH 7.0 described above.

[4] = molecular target: MMP-9FL (full-length Gelatinase B) (Homo sapiens, UniProt P14780); assay: Thiopeptolide substrate hydrolysis inhibition assay, MMP-9FL; format: biochemical; details: Table II; micromolar concentration; HEPES pH 7.0
Chain of MMP-9FL (full-length Gelatinase B) (P14780 94-707, species assumed): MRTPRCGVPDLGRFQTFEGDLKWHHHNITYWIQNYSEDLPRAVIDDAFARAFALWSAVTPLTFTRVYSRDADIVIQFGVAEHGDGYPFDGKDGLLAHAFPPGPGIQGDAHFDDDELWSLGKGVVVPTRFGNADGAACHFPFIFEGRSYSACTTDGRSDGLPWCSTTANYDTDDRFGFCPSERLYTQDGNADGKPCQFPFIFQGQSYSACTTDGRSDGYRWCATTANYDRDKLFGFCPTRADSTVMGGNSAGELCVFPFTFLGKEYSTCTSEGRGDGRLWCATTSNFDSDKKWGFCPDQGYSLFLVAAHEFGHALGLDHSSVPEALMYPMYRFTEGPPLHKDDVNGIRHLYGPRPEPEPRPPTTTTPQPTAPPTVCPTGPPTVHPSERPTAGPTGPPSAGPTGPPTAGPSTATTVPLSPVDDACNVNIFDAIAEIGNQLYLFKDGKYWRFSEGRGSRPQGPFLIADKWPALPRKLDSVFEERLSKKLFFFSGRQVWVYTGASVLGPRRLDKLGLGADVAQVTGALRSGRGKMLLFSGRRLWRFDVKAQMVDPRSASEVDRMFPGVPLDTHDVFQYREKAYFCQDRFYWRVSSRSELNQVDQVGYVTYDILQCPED
Text: as §1

[5] = Table I, thiopeptolide substrate, HEPES pH 7.0, 22° C., read-out: MMP-13CD IC50
[6] = Table II, micromolar concentration, HEPES pH 7.0, read-out: IC50 MMP-13CD

melting point	IC50 [1, 5] [µM]	Compound	other results
> 255 °C	30	O=C(NCc1ccccc1)c1cc2c(=O)n(Cc3ccccc3)c(=O)[nH]c2s1 [Example 3, 3-Benzyl-2,4-dioxo-1,2,3,4-tetrahydro-thieno[2,3-d]pyrimidine-6-carboxylic acid benzyl amide]	
180 to 183 °C		COc1ccc(CNC(=O)c2cc3c(=O)n(CC#N)c(=O)n(C)c3s2)cc1 [Example 223, 3-Cyanomethyl-1-methyl-2,4-dioxo-1,2,3,4-tetrahydro-thieno[2,3-d]pyrimidine-6-carboxylic acid 4-methoxy-benzylamide]	
147 to 148 °C	> 100	CCn1c(=O)n(Cc2ccccc2)c(=O)c2cc(C(=O)OCc3ccccc3)sc21 [Example 73, 3-Benzyl-1-ethyl-2,4-dioxo-1,2,3,4-tetrahydro-thieno[2,3-d]pyrimidine-6-carboxylic acid benzyl ester]	
143 to 145 °C		Cn1c(=O)n(Cc2ccccc2)c(=O)c2cc(C(=O)OCc3ccccc3)sc21 [Example 9, 3-Benzyl-1-methyl-2,4-dioxo-1,2,3,4-tetrahydro-thieno[2,3-d]pyrimidine-6-carboxylic acid benzyl ester]	
247 to 249 °C	16	O=C(OCc1ccc(/C=C/c2ccccc2)cc1)c1cc2c(=O)n(Cc3ccccc3)c(=O)[nH]c2s1 [Example 4]	
		COc1cccc(CNC(=O)c2cc3c(=O)n(Cc4ccc(CC(=O)O)cc4)c(=O)n(C)c3s2)c1 [Example 39, {4-[6-(3-Methoxy-benzylcarbamoyl)-1-methyl-2,4-dioxo-1,4-dihydro-2H-thieno[2,3-d]pyrimidin-3-ylmethyl]-phenyl}-acetic acid]	IC50 [2]: 10 µM; IC50 [3]: 16 µM; IC50 [1, 6]: 0.0038 µM
159 to 163 °C	0.783	COc1cccc(CNC(=O)c2cc3c(=O)n(CC#N)c(=O)n(C)c3s2)c1 [Example 224, 3-Cyanomethyl-1-methyl-2,4-dioxo-1,2,3,4-tetrahydro-thieno[2,3-d]pyrimidine-6-carboxylic acid 3-methoxy-benzylamide]	
267 to 269 °C	10	Cc1ccc(-n2c(=O)[nH]c3sc(C(=O)OCc4ccccc4)c(C)c3c2=O)cc1 [Example 7, 5-Methyl-2,4-dioxo-3-p-tolyl-1,2,3,4-tetrahydro-thieno[2,3-d]-6-carboxylic acid benzyl ester]	
195 to 197 °C	0.74	O=C(OCc1ccccc1)c1cc2c(=O)n(Cc3ccccc3)c(=O)[nH]c2s1 [Example 1, 3-Benzyl-2,4-dioxo-1,2,3,4-tetrahydro-thieno[2,3-d]pyrimidine-6-carboxylic acid benzyl ester]	IC50 [3]: 18 µM; IC50 [1, 6]: 0.61 µM
226 to 228 °C (dec.)	0.061	COc1ccc(CNC(=O)c2cc3c(=O)n(Cc4ccc(/C(N)=N/O)cc4)c(=O)n(C)c3s2)cc1 [Example 220, 3-[4-(N-Hydroxycarbamimidoyl)-benzyl]-1-methyl-2,4-dioxo-1,2,3,4-tetrahydro-thieno[2,3-d]pyrimidine-6-carboxylic acid 4-methoxy-benzylamide]	
	0.26	O=C(OCc1ccncc1)c1cc2c(=O)n(Cc3ccc(Br)cc3)c(=O)[nH]c2s1 [Example 49, 3-(4-Bromo-benzyl)-2,4-dioxo-1,2,3,4-tetrahydro-thieno[2,3-d]pyrimidine-6-carboxylic acid pyridin-4-ylmethyl ester]	IC50 [3]: 23 µM; IC50 [1, 6]: 0.26 µM
207 to 209 °C	51	Cc1c(C(=O)OCc2ccccc2)sc2[nH]c(=O)n(CCc3ccccc3)c(=O)c12 [Example 5, 5-Methyl-2,4-dioxo-3-phenylethyl-1,2,3,4-tetrahydro-thieno[2,3-d]pyrimidine-6-carboxylic acid benzyl ester]	
248 to 250 °C	0.31	O=C(OCc1ccncc1)c1cc2c(=O)n(Cc3ccccc3)c(=O)[nH]c2s1 [Example 2, 3-Benzyl-2,4-dioxo-1,2,3,4-tetrahydro-thieno[2,3-d]pyrimidine-6-carboxylic acid pyridin-4-ylmethyl ester]	
	0.0785	COc1ccc(CNC(=O)c2cc3c(=O)n(Cc4ccc(S(N)(=O)=O)cc4)c(=O)n(C)c3s2)cc1 [Example 217, 1-Methyl-2,4-dioxo-3-(4-sulfamoyl-benzyl)-1,2,3,4-tetrahydro-thieno[2,3-d]pyrimidine-6-carboxylic acid 4-methoxy-benzylamide]	IC50 [2]: 30 µM; IC50 [4]: 30 µM; IC50 [3]: 27 µM; IC50 [1, 6]: 0.0785 µM
169 to 171 °C	0.225	COC(=O)/C=C/Cn1c(=O)c2cc(C(=O)NCc3ccc(OC)cc3)sc2n(C)c1=O [Example 225, (E)-4-[6-(4-Methoxy-benzylcarbamoyl)-1-methyl-2,4-dioxo-1,4-dihydro-2H-thieno[2,3-d]pyrimidin-3-yl]-but-2-enoic acid methyl ester]	
	2.9	Cn1c(=O)n(CCN2C(=O)c3ccccc3C2=O)c(=O)c2cc(C(=O)OCc3ccccc3)sc21 [Example 112, 3-[2-(1,3-Dioxo-1,3-dihydro-isoindol-2-yl)-ethyl]-1-methyl-2,4-dioxo-1,2,3,4-tetrahydro-thieno[2,3-d]pyrimidine-6-carboxylic acid benzyl ester]	
	0.54	Cn1c(=O)n(Cc2ccccc2)c(=O)c2cc(C(=O)NCc3ccccc3)sc21 [Example 148, 3-Benzyl-1-methyl-2,4-dioxo-1,2,3,4-tetrahydro-thieno[2,3-d]pyrimidine-6-carboxylic acid benzyl amide]	
	1.4	COc1cccc(CNC(=O)c2cc3c(=O)n(CCC(=O)c4ccccc4)c(=O)n(C)c3s2)c1 [Example 243, 1-Methyl-2,4-dioxo-3-(3-oxo-3-phenyl-propyl)-1,2,3,4-tetrahydro-thieno[2,3-d]pyrimidine-6-carboxylic acid 3-methoxy-benzylamide]	
	4.5	CCN1CCCC(OC(=O)c2cc3c(=O)n(Cc4ccccc4)c(=O)n(C)c3s2)C1 (centres unmarked) [Example 186, 3-Benzyl-1-methyl-2,4-dioxo-1.2.3.4-tetrahydro-thieno[2,3-d]pyrimidine-6-carboxylic acid 1-ethyl-piperidin-3-yl ester]	
	0.00655	Cn1c(=O)n(Cc2ccc(C(=O)O)cc2)c(=O)c2cc(C(=O)NCc3cccc(OC(F)F)c3)sc21 [Example 77, 4-[6-(3-Difluoromethoxy-benzylcarbamoyl)-1-methyl-2,4-dioxo-1,4-dihydro-2H-thieno[2,3-d]pyrimidin-3-ylmethyl]-benzoic acid]	
	9.9	Cc1ccc(CNC(=O)c2cc3c(=O)n(Cc4ccccc4)c(=O)n(C)c3s2)o1 [Example 346, 3-Benzyl-1-methyl-2,4-dioxo-1,2,3,4-tetrahydro-thieno[2,3-d]pyrimidine-6-carboxylic acid (5-methyl-furan-2-ylmethyl)-amide]	
	0.007	COc1ccc(CNC(=O)c2cc3c(=O)n(CC#Cc4ccccc4)c(=O)n(C)c3s2)cc1 [Example 385, 1-Methyl-2,4-dioxo-3-(3-phenyl-prop-2-ynyl)-1,2,3,4-tetrahydro-thieno[2,3-d]pyrimidine-6-carboxylic acid 4-methoxy-benzylamide]	
	16	Cn1c(=O)n(Cc2ccccc2)c(=O)c2cc(C(=O)NCC(c3ccccc3)c3ccccc3)sc21 [Example 347, 3-Benzyl-1-methyl-2,4-dioxo-1,2,3,4-tetrahydro-thieno[2,3-d]pyrimidine-6-carboxylic acid (2,2-diphenyl-ethyl)-amide]	
	> 100	COc1cc(CNC(=O)c2cc3c(=O)n(Cc4ccccc4)c(=O)n(C)c3s2)cc(OC)c1OC [Example 331, 3-Benzyl-1-methyl-2,4-dioxo-1,2,3,4-tetrahydro-thieno[2,3-d]pyrimidine-6-carboxylic acid 3,4,5-trimethoxy-benzylamide]	
	18	COc1cccc(CNC(=O)c2cc3c(=O)[nH]c(=O)n(C)c3s2)c1 [Example 218]	
	> 100	CC(=O)c1ccc(-n2c(=O)[nH]c3sc(C(=O)OCc4ccccc4)c(C)c3c2=O)cc1 [Example 6, 3-(4-Acetyl-phenyl)-5-methyl-2,4 dioxo-1,2,3,4-tetrahydro-thieno[2,3-d]-pyrimidine-6-carboxylic acid benzyl ester]	
	10	COc1cccc(CNC(=O)c2cc3c(=O)n(CCS(=O)(=O)Cc4ccccc4)c(=O)n(C)c3s2)c1 [Example 282]	
	4	COc1ccc(CNC(=O)c2cc3c(=O)n(CCS(=O)(=O)c4ccccc4)c(=O)n(C)c3s2)cc1 [Example 266]	
	3.5	COc1cccc(CNC(=O)c2cc3c(=O)n(C(C)c4ccccc4)c(=O)n(C)c3s2)c1 (centres unmarked) [Example 279]	

Compound	melting point	IC50 [1, 5] [µM]	other results
Cn1c(=O)n(Cc2ccccc2)c(=O)c2cc(C(=O)OC(C#N)c3ccccc3)sc21 (centres unmarked) [Example 211, 3-Benzyl-1-methyl-2,4-dioxo-1,2,3,4-tetrahydro-thieno[2,3-d]pyrimidine-6-carboxylic acid cyano-phenyl-methyl ester]		2.1	
